We go through one compound from patent US9682148B2, “Solid oral dosage form of testosterone derivative” (Solural Pharma APS, priority 2012, dated 2017).

For data set [1] the following is noted: cited from earlier work.
A short description of data set [2]: Estimate of maximal amount of lymphatic absorbed TU. The following applies: estimated: 25% of solubility x 120 mg/g x 3.5 g triglyceride/10 h, formulation of 600 mg fat. The text has this: The maximal amount of lymphatic absorbed TU can be estimated from the solubility of Testosterone Undecanoate in triglyceride and the transported triglyceride (Int. J. Pharm., vol. 34, 175-178, 1986).

On to `CCCCCCCCCCC(=O)O[C@H]1CC[C@H]2[C@@H]3CCC4=CC(=O)CC[C@]4(C)[C@H]3CC[C@]12C` [Testosterone Undecanoate], for which the solubility in triglyceride in data set [1] is given as 120 mg/g. Also, the “maximal amount of lymphatic absorbed TU” value in data set [2] was approximately 100 mg.
